Test results reported in patent US7541464B2, “7-azaindoles, pharmaceutical compositions and their therapeutic applications” (Sanofi-Aventis Deutschland GmbH, priority 2004, dated 2009).
Where two headings read alike, the source gives them in different places. One block for each compound: values may come before it.

Legend:
[1] = target: T1, human PPARdelta (Homo sapiens, UniProt Q03181); assay: Cellular PPARdelta assay (HEK luciferase reporter cell line); format: cell-based; conditions: PPARdelta reporter cell line (HEK, GR-GAL4-humanPPARdelta-LBD)
T1 construct: amino acids S139-Y441; expressed in transfected cells; plasmid pcDNA3
T1 sequence (Q03181 139-441): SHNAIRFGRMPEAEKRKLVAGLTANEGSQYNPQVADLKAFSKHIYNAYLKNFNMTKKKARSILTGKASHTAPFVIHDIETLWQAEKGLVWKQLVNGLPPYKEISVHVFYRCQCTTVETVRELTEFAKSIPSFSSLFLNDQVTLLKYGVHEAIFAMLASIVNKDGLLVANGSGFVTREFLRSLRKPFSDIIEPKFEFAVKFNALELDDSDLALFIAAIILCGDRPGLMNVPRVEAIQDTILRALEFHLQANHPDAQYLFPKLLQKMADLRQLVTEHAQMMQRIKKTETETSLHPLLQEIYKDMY
Procedure: The potency of substances which bind to human PPARdelta and activate it in an agonistic manner is analyzed using a stably transfected HEK cell line (HEK=human embryo kidney) which is referred to here as PPARdelta reporter cell line. In analogy to the assay described for PPARalpha, the PPARdelta reporter cell line also contains two genetic elements, a luciferase reporter element (pdeltaM-GAL4-Luc-Zeo) and a PPARdelta fusion protein (GR-GAL4-humanPPARdelta-LBD) which mediates expression of the luciferase reporter element depending on a PPARdelta ligand. The stably and constitutively expressed fusion protein GR-GAL4-humanPPARdelta-LBD binds in the cell nucleus of the PPARdelta reporter cell line via the GAL4 protein portion to the GAL4 DNA binding motifs 5′-upstream of the luciferase reporter element which is stably integrated in the genome of the cell line. […] The luciferase which is formed can be detected by means of chemiluminescence via an appropriate substrate. […]
The activity of PPARdelta agonists is determined in a 3-day assay in exact analogy to the procedure already described for the PPARalpha reporter cell line except that the PPARdelta reporter cell line and a specific PPARdelta agonist was used as a standard to control test efficacy.

[2] = target: T2, human PPARalpha (Homo sapiens, UniProt Q07869); assay: Cellular PPARalpha assay (HEK luciferase reporter cell line); format: cell-based; conditions: PPARalpha reporter cell line (HEK, GR-GAL4-humanPPARalpha-LBD)
T2 construct: amino acids S167-Y468; expressed in transfected cells; plasmid pcDNA3
T2 sequence (Q07869 167-468): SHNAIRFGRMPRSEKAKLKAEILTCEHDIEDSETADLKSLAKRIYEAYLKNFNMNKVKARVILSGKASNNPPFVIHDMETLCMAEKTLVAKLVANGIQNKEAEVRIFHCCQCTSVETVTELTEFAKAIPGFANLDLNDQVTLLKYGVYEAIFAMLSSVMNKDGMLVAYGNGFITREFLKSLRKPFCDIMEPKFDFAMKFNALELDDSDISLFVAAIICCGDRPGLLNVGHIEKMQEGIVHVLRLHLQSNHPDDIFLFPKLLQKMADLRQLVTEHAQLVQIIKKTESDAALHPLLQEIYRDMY
Procedure: Determination of EC50 Values of PPAR Agonists In the Cellular PPARalpha Assay
The potency of substances which bind to human PPARalpha and activate it in an agonistic manner is analyzed using a stably transfected HEK cell line (HEK=human embryo kidney) which is referred to here as PPARalpha reporter cell line. It contains two genetic elements, a luciferase reporter element (pdeltaM-GAL4-Luc-Zeo) and a PPARalpha fusion protein (GR-GAL4-humanPPARalpha-LBD) which mediates expression of the luciferase reporter element depending on a PPARalpha ligand. The stably and constitutively expressed fusion protein GR-GAL4-humanPPARalpha-LBD binds in the cell nucleus of the PPARalpha reporter cell line via the GAL4 protein portion to the GAL4 DNA binding motifs 5′-upstream of the luciferase reporter element which is stably integrated in the genome of the cell line. There is only weak expression of the luciferase reporter gene in the absence of a PPARalpha ligand if fafty acid-depleted fetal calf serum (cs-FCS) is used in the assay. PPARalpha ligands bind and activate the PPARalpha fusion protein and thereby stimulate the expression of the luciferase reporter gene. The luciferase which is formed can be detected by means of chemiluminescence via an appropriate substrate. […]
The activity of PPARalpha agonists is determined in a 3-day assay which is described below: […]

[3] = system: PPARdelta; conditions: obese, insulin resistant rhesus monkeys; cited from earlier work
[4] = system: PPARdelta/PPARalpha; conditions: rhesus and cynomolgus monkeys; cited from earlier work
[5] = system: PPARdelta/PPARalpha; conditions: two weeks clinical trials in healthy volunteers; cited from earlier work
[6] = system: PPARdelta; conditions: diabetic animal model; cited from earlier work

EC50 [1]: 470 nM
EC50 [2]: 40 nM
Compound: CCCCc1nc(-c2ccc(C(F)(F)F)cc2)sc1Cn1ccc2cc(OCC(=O)O)cnc21 [Example 1, {1-[4-Butyl-2-(4-trifluoromethyl-phenyl)-thiazol-5-ylmethyl]-1H-pyrrolo[2,3-b]pyridin-5-yloxy}-acetic acid]

Compound: Cc1cc(SCc2sc(-c3ccc(C(F)(F)F)cc3)nc2C)ccc1OCC(=O)O [GW501516]
HDL-cholesterol [3]: raises
plasma LDL-cholesterol [3]: decreases
plasma insulin levels [3]: decreases
plasma triglycerides [3]: decreases

Compound: CCCc1c(OCCCSc2nnc(SCC(=O)O)s2)ccc(C(C)=O)c1O [YM-16638]
plasma lipids [4]: significantly lowers plasma lipids
plasma lipids [5]: acts in a similar manner

EC50 [1]: 140 nM
EC50 [2]: 320 nM
Compound: CCCCc1nc(-c2ccc(C(F)(F)F)cc2)sc1Cn1ccc2c(CCC)c(OCC(=O)O)cnc21 [Example 2, {1-[4-Butyl-2-(4-trifluoromethyl-phenyl)-thiazol-5-ylmethyl]-4-propyl-1H-pyrrolo[2,3-b]pyridin-5-yloxy}-acetic acid]

Compound: CCCc1c(OCCCOc2ccc(OCC(=O)O)cc2)ccc(C(C)=O)c1O [Example L-165041]
plasma cholesterol [6]: raises plasma cholesterol
